Measured values as given in US9630947B2, “Therapeutic compounds and related methods of use” (OTSUKA PHARMACEUTICAL CO., LTD., priority 2009, dated 2017).

Target: T1, purified STEP46 enzyme (Homo sapiens, UniProt P54829)
T1 sequence (P54829 1-565): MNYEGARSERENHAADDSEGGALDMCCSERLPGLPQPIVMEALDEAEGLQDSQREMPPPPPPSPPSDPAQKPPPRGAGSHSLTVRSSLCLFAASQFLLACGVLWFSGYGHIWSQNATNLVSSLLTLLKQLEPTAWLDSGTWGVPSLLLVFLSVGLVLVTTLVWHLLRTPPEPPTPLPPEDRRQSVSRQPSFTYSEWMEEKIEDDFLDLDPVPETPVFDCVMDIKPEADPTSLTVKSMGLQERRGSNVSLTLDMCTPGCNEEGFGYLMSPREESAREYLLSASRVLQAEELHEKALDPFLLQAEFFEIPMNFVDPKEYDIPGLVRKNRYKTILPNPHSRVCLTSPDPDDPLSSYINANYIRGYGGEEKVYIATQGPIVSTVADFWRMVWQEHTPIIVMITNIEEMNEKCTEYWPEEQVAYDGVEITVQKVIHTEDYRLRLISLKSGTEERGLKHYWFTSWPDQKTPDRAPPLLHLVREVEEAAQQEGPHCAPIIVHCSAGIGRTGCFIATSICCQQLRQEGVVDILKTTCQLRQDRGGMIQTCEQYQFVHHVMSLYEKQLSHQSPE
Assay: STEP46 biochemical assay (DiFMUP fluorescence phosphatase assay)
Details: DiFMUP 10 μM, read-out: STEP IC50
Description: STEP46 Biochemical Assays
Serial dilutions of compounds were performed in 100% DMSO and 1 uL of compounds were dispensed into 384-well black polystyrene plates (Corning, NY). Compounds were incubated with 24 uL of buffer containing 50 mM Hepes, 1 mM DTT, 0.02% Brij35, 1 ng/well purified STEP46 enzyme for 30 min at room temperature. The reaction was initiated by addition of 25 uL of DiFMUP (6, 8-difluoro-4-methylumbelliferyl phosphate) (InVitrogen, CA) with a final concentration of 10 μM and incubated at 27° C. for 90 min. Final DMSO concentration is 2%. Plates were read with florescence intensity at excitation/emission of 360/460 nm using a PheraStar plate reader (BMG Labtech, NC).
Data were expressed as percentage (%) inhibition of enzyme activity. 0% inhibition is defined as the RFUs (relative fluorescence units) in the absence of compounds and 100% inhibition is defined as RFUs in the absence of STEP46 enzyme. IC50 values of compounds with inhibitory activity against STEP46 were determined by GraphPad Prism (version 4.03) using four parameter logistic equation. Some compounds act as activators. For compounds showing STEP46 enzymatic activation, data are represented as percentage of inhibition but with negative values at three representative concentrations (25, 50 and 100 uM).

Row | Compound | IC50
1 | COc1ccc2nc(-c3cccnc3)nc(Nc3ccccc3Br)c2c1 [Compound 437] | 1000 to 10000 nM
2 | CNc1nc(-c2cccnc2)nc2cc(-c3ccc(Cl)cc3)ccc12 [Compound 1354] | 1000 to 10000 nM
3 | COc1ccc2nc(-c3cccnc3)nc(Nc3nc(-c4ccccc4OC)cs3)c2c1 [Compound 436] | 1000 to 10000 nM
4 | COc1ccc2nc(-c3cccnc3)nc(Nc3nc(-c4ccc(F)cc4)cs3)c2c1 [Compound 419] | < 1000 nM
5 | COc1ccc2nc(-c3cccnc3)nc(Nc3nc(-c4ccc(Cl)cc4)c(C)s3)c2c1 [Compound 461] | 1000 to 10000 nM
6 | COc1ccc2nc(-c3cccnc3)nc(Nc3ccc4ccc(=O)[nH]c4c3)c2c1 [Compound 325] | < 1000 nM
7 | Fc1cccc(-c2ccc3c(Nc4ccc(F)c(Cl)c4)nc(-c4cccnc4)nc3c2)c1 [Compound 688] | < 1000 nM
8 | COc1ccc2nc(-c3ccnnc3)nc(Nc3ccccc3C(N)=O)c2c1 [Compound 1198] | 1000 to 10000 nM
9 | N#Cc1ccccc1-c1ccc2c(Nc3ccc(F)c(Cl)c3)nc(-c3cccnc3)nc2c1 [Compound 685] | < 1000 nM
10 | CC(C)Oc1cccc(-c2ccc3nc(-c4cccnc4)nc(Nc4ccc(F)c(Cl)c4)c3c2)c1 [Compound 673] | 1000 to 10000 nM
11 | COc1ccc2nc(-c3cccnc3)nc(Nc3ccccc3C(=O)NCc3cccs3)c2c1 [Compound 884] | > 10000 nM
12 | FC(F)(F)Oc1cccc(Nc2nc(-c3cnccn3)nc3ccccc23)c1 [Compound 1150] | > 10000 nM
13 | COc1cccc(-c2csc(Nc3nc(-c4cccnc4)nc4ccc(OC)cc34)n2)c1 [Compound 434] | 1000 to 10000 nM
14 | COc1ccc2nc(-c3cccnc3)nc(Oc3ccccc3)c2c1 [Compound 348] | 1000 to 10000 nM
15 | Cc1ccc(-c2ccc3c(Nc4ccc(F)c(Cl)c4)nc(-c4cccnc4)nc3c2)cc1 [Compound 695] | < 1000 nM
16 | COc1ccc2nc(-c3cccnc3)nc(Nc3nc(-c4cccc(C(F)(F)F)c4)cs3)c2c1 [Compound 449] | 1000 to 10000 nM
17 | N#Cc1cccc(Nc2nc(-c3ccnnc3)nc3ccccc23)c1 [Compound 1217] | 1000 to 10000 nM
18 | COc1ccc2nc(-c3cccnc3)nc(Nc3ncc(-c4ccccc4)s3)c2c1 [Compound 418] | 1000 to 10000 nM
19 | COc1cc(Cl)cc(-c2ccc3nc(-c4cccnc4)nc(Nc4ccc(F)c(Cl)c4)c3c2)c1 [Compound 663] | < 1000 nM
20 | Cc1cccc2c(Nc3cccc(C#N)c3)nc(-c3cnccn3)nc12 [Compound 1181] | 1000 to 10000 nM
21 | Cc1cccc(-c2ccc3c(Nc4ccc(F)c(Cl)c4)nc(-c4cccnc4)nc3c2)c1 [Compound 696] | < 1000 nM
22 | COc1ccc2nc(-c3cccnc3)nc(Nc3nc(C4CCCCC4)cs3)c2c1 [Compound 433] | 1000 to 10000 nM
23 | COc1ccc(-c2ccc3nc(-c4cccnc4)nc(Nc4ccc(F)c(Cl)c4)c3c2)c(OC)n1 [Compound 655] | < 1000 nM

Row | Compound | IC50
24 | CNc1nc(-c2cccnc2)nc2ccc(-c3ccc(OC)cc3)c(C)c12 [Compound 1458] | > 10000 nM
25 | COc1cccc(-c2ccc3nc(-c4cccnc4)nc(Nc4ccc(F)c(Cl)c4)c3c2)c1OC [Compound 644] | 1000 to 10000 nM
26 | CNc1nc(-c2cccnc2)nc2cc(C)c(-c3ccc(OC)cc3)cc12 [Compound 1420] | 1000 to 10000 nM
27 | CCOc1ccc2nc(-c3cccnc3)nc(Nc3ccccc3C(N)=O)c2c1 [Compound 73] | 1000 to 10000 nM
28 | Fc1ccc(Nc2nc(-c3cccnc3)nc3cc(-c4ccccc4F)ccc23)cc1Cl [Compound 687] | < 1000 nM
29 | Clc1cc(Cl)cc(Nc2nc(-c3ccnnc3)nc3cc(Cl)ccc23)c1 [Compound 1205] | 1000 to 10000 nM
30 | CNc1nc(-c2cccnc2)nc2ccc(-c3cccc(OC)c3)cc12 [Compound 1248] | 1000 to 10000 nM
31 | COc1ccc2nc(-c3cccnc3)nc(Nc3nnc(-c4ccc(Br)cc4)s3)c2c1 [Compound 428] | 1000 to 10000 nM
32 | CNc1nc(-c2cccnc2)nc2cc(-c3ccc(C)cc3)ccc12 [Compound 1362] | 1000 to 10000 nM
33 | CNc1nc(-c2cccnc2)nc2cc(-c3ccccc3F)ccc12 [Compound 1358] | 1000 to 10000 nM
34 | Fc1ccc(Nc2nc(-c3cccnc3)nc3ccc(-c4ccoc4)cc23)cc1Cl [Compound 647] | 1000 to 10000 nM
35 | COc1ccc2nc(-c3cccnc3)nc(Nc3ccc4sc(=O)n(C)c4c3)c2c1 [Compound 327] | 1000 to 10000 nM
36 | CNc1nc(-c2cccnc2)nc2c(C)c(-c3cccc(F)c3)ccc12 [Compound 1449] | > 10000 nM
37 | CNc1nc(-c2cccnc2)nc2c(C)c(-c3ccccc3)ccc12 [Compound 1454] | > 10000 nM
38 | COc1ccc2nc(-c3ccnnc3)nc(Nc3ccc(F)c(F)c3)c2c1 [Compound 1186] | 1000 to 10000 nM
39 | COc1ccc2nc(-c3cccnc3)nc(Oc3ccc4[nH]c(=O)ccc4c3)c2c1 [Compound 346] | 1000 to 10000 nM
40 | CN(C)c1nc(-c2cccnc2)nc2ccc(-c3cccc(F)c3F)cc12 [Compound 1380] | 1000 to 10000 nM
41 | c1cncc(-c2ccc3nc(-c4cccnc4)nc(Nc4ccc5ccsc5c4)c3c2)c1 [Compound 313] | < 1000 nM
42 | CN(C)c1cccc(-c2ccc3c(Nc4ccc(F)c(Cl)c4)nc(-c4cccnc4)nc3c2)c1 [Compound 693] | < 1000 nM
43 | CNc1nc(-c2cccnc2)nc2c(C)c(-c3cccc(C#N)c3)ccc12 [Compound 1453] | 1000 to 10000 nM
44 | CNc1nc(-c2cccnc2)nc2cc(-c3ccc(F)cc3)ccc12 [Compound 1360] | 1000 to 10000 nM
45 | CC(=O)Nc1nc(-c2cccnc2)nc2ccc(-c3cccc(F)c3F)cc12 [Compound 1369] | 1000 to 10000 nM
46 | COc1ccccc1-c1ccc2nc(-c3cccnc3)nc(Nc3ccc(F)c(Cl)c3)c2c1 [Compound 637] | 1000 to 10000 nM

Row | Compound | IC50
47 | CNc1nc(-c2cccnc2)nc2c(C)cc(-c3ccccc3OC)cc12 [Compound 1283] | > 10000 nM
48 | CN(C)C(=O)COc1ccc2nc(-c3cccnc3)nc(Oc3ccc(F)c(Cl)c3)c2c1 [Compound 846] | 1000 to 10000 nM
49 | N#Cc1cccc(Nc2nc(-c3cccnc3)nc3cc(-c4ccc(F)cc4)ccc23)c1 [Compound 709] | < 1000 nM
50 | COc1ccc2nc(-c3cccnc3)nc(Nc3nc(-c4ccccc4)c(C(N)=O)s3)c2c1 [Compound 1125] | 1000 to 10000 nM
51 | NC(=O)c1ccc(-c2ccc3nc(-c4cccnc4)nc(Nc4ccc(F)c(Cl)c4)c3c2)cc1 [Compound 656] | < 1000 nM
52 | CNc1nc(-c2cccnc2)nc2ccc(-c3cccnc3OC)cc12 [Compound 1330] | > 10000 nM
53 | NC(=O)c1ccccc1Nc1nc(-c2cnccn2)nc2cc(Cl)ccc12 [Compound 1143] | 1000 to 10000 nM
54 | COc1ccc2nc(-c3ccnnc3)nc(Nc3cccc(OC(F)(F)F)c3)c2c1 [Compound 1188] | 1000 to 10000 nM
55 | NC(=O)c1ccccc1Nc1nc(-c2cccnc2)nc2cc(-c3cccc(F)c3)ccc12 [Compound 700] | < 1000 nM
56 | COc1cccc(-c2ccc3nc(-c4cccnc4)nc(Oc4ccc(F)c(Cl)c4)c3c2)c1 [Compound 390] | 1000 to 10000 nM
57 | CN(C)c1nc(-c2cccnc2)nc2ccc(-c3ccccc3Cl)cc12 [Compound 1332] | 1000 to 10000 nM
58 | Fc1ccc(-c2ccc3c(Nc4ccc(F)c(Cl)c4)nc(-c4cccnc4)nc3c2)c(F)c1 [Compound 698] | < 1000 nM
59 | COc1ccc2nc(-c3cccnc3)nc(Nc3ccc4ccc(=O)oc4c3)c2c1 [Compound 330] | 1000 to 10000 nM
60 | NC(=O)c1ccccc1Nc1nc(-c2cccnc2)nc2cc(-c3ccccc3F)ccc12 [Compound 702] | < 1000 nM
61 | CN(C)c1nc(-c2cccnc2)nc2ccc(-c3ccccc3[N+](=O)[O-])cc12 [Compound 1334] | > 10000 nM
62 | CCOc1cccc(-c2ccc3nc(-c4cccnc4)nc(Nc4ccc(F)c(Cl)c4)c3c2)c1 [Compound 657] | < 1000 nM
63 | Fc1ccc(Nc2nc(-c3ccnnc3)nc3cc(Cl)ccc23)cc1F [Compound 1202] | 1000 to 10000 nM
64 | FC(F)Oc1cccc(Nc2nc(-c3ccnnc3)nc3cc(Cl)ccc23)c1 [Compound 1200] | 1000 to 10000 nM
65 | CNc1nc(-c2cccnc2)nc2cc(-c3cc(F)ccc3F)ccc12 [Compound 1601] | 1000 to 10000 nM
66 | O=C(c1ccc(-c2ccc3nc(-c4cccnc4)nc(Nc4ccc(F)c(Cl)c4)c3c2)cc1)N1CCCCC1 [Compound 665] | 1000 to 10000 nM
67 | CNC(=O)c1ccc(-c2ccc3nc(-c4cccnc4)nc(Nc4ccc(F)c(Cl)c4)c3c2)cc1 [Compound 667] | < 1000 nM
68 | CNc1nc(-c2cccnc2)nc2cc(-c3cc(F)cc(F)c3)ccc12 [Compound 1374] | 1000 to 10000 nM
69 | CNc1nc(-c2cccnc2)nc2cc(-c3ccccc3)ccc12 [Compound 1348] | > 10000 nM
